This is an account of results in article PMC6010093, “α-Glucosidase inhibitory activity and cytotoxic effects of some cyclic urea and carbamate derivatives” (Journal of Enzyme Inhibition and Medicinal Chemistry, 2017).

For assay [1], the system named is HeLa, cervix adenocarcinoma cell line. In words: MTT cytotoxicity assay, HeLa. The format is cell-based. To be noted: Homo sapiens, 72 h exposure, mean ± standard deviation.
For assay [2], the system named is A549, non-small cell lung carcinoma cell line. In words: MTT cytotoxicity assay, A549. The format is cell-based. To be noted: Homo sapiens, 72 h exposure, mean ± standard deviation.
Assay [3] concerns MDA-MB-453 human breast cancer cell line. In words: MTT cytotoxicity assay, MDA-MB-453. It counts as cell-based. To be noted: 72 h exposure, mean ± standard deviation.
Another assay deals with HeLa cells. In words: Morphological evaluation of cell death (acridine orange/ethidium bromide staining, fluorescence microscope). It counts as cell-based, human. The protocol:
After 24 h of seeding 80 000 HeLa cells per well, they were treated with compound dilutions of IC50 and 2 × IC50 in control only nutrient medium was added. After another 24 h of incubation cells were stained with acridine orange AO and ethidium bromide EB (3 μg/mLAO +10 μg/mL EB in PBS), then visualized under a fluorescence microscope (Carl Zeiss, Oberkochen, Germany) PALM MicroBeam with Axio Observer.Z1 using AxioCam MRm (filters Alexa 488 and 568), as described in literature.
Morphological changes were observed after cells were stained with acridine orange and ethidium-bromide. Acridine orange can penetrate into the living cells and emits green fluorescence, while ethidium-bromide enters the cells after cell membrane damage and emits red fluorescence. […] Observed control cells are with unchanged morphology, stained green.

Setting [4] is: 24 h treatment with 2 × IC50 concentration of compound.
[5] abbreviates: 24 h treatment with IC50 dilution of compound.

The term IC50 denotes the midpoint of a concentration-inhibition curve. The low end stands for higher potency, the high end for lower potency.

Entries after “also recorded” stand apart in the source; their conditions may differ.

As to `COC(=O)Nc1cc(OC)c(OC)c(OC)c1` [Compound 11], the figures for the IC50 in assay [1], in assay [2] and in assay [3] were 194.4 ± 1.44 µM, 200 ± 2.37 µM and 164 ± 3.93 µM, respectively. Also, the “Morphological changes of HeLa cells (cell death type)” value (“Morphological changes of HeLa cells” below) in the assay on HeLa cells (setting [4]) is “necrotic changes”; in the assay with HeLa cells (setting [5]) it was “late apoptotic signs; also recorded: apoptosis occurred”.

Turning to `CC(C)(C)OC(=O)N1CCC(NC(=O)OCc2ccccc2)CC1` [Compound 8], the IC50 in assay [1] worked out at 158 ± 6.04 µM; in assay [2] it was 155.8 ± 0.7 µM; in assay [3], 112 ± 4.91 µM. The results for the “Morphological changes of HeLa cells” value in the assay on HeLa cells (setting [4]) and in the assay with HeLa cells (setting [5]) were “necrotic changes” and “late apoptotic signs; also recorded: apoptosis occurred”, respectively.

On to `COc1cc(NC(=O)OCc2ccccc2)cc(OC)c1OC` [Compound 12, benzyl (3,4,5-trimethoxyphenyl)carbamate], for which the IC50 in assay [1] was 139 ± 8.28 µM; in assay [2] it was 180 ± 2.57 µM; in assay [3], 108 ± 4.95 µM. Moreover, the “Morphological changes of HeLa cells” value is on record as “necrotic changes” in the assay on HeLa cells (setting [4]) and “late apoptotic signs; also recorded: apoptosis occurred” with HeLa cells (setting [5]).
